Results published in patent US20200060276A1, “THIAZOLE COMPOUND AND HERBICIDE” (OAT Agrio Co., Ltd., priority 2017, published 2020).

Experiments:
Format in all cases: in vivo
[1] = tested on: Echinochloa crus-galli (L.) P. Beauv. var. formosensis Ohwi; assay: Test for Herbicidal Effect in Flooding Treatment (#2), ECHDG at 2-2.5 leaf stage; details: for ECHDG (2-2.5L) #2 herbicidal effect (growth inhibition grade): flooding treatment at 2-2.5 leaf stage, dose 0.2 kg/ha, visual observation on day 21
Protocol: (#2) Test for Herbicidal Effect in Flooding Treatment: Styrol cups each having an opening diameter of 13 cm (about 130 cm^2) were respectively filled with muddy soil (500 ml). Water (about 300 ml) was mixed with the soil such that the soil was flooded. After the soil stood still for 24 hours, Echinochloa crus-galli (L.) P. Beauv. var. formosensis Ohwi was seeded. When the Echinochloa crus-galli (L.) P. Beauv. var. formosensis Ohwi grew to reach 2-2.5 leaf stage, chemical solutions were dropped on the entire surface of treatment sections, so that each section is treated with 1 ml of the respective chemical solution (a dose of 0.2 kg/ha). Each of the chemical solutions was prepared by dissolving associated one of the compounds of the present invention in acetone, followed by dilution with water containing Tween 80 g. After the treatment, the plants were grown in a glasshouse. On day 21, a survey was conducted on the herbicidal activity by visual observation, and evaluation was made according to the following criteria. 0: Growth inhibition effect is less than 10%. 1: Growth inhibition effect is equal to or greater than 10%, and less than 30%. 2; Growth inhibition effect is equal to or greater than 30%, and less than 50%. 3: Growth inhibition effect equal to or greater than 50%, and less than 70%. 4: Growth inhibition effect is equal to or greater than 70%, and less than 90%. 5: Growth inhibition effect is equal to or greater than 90%, or complete withering is achieved. ECHDG=Echinochloa crus-galli (L.) P. Beauv. var. formosensis Ohwi, MONVA=Monochoria vaginalis, SCIJU=Scirpus juncoides, CYMIC=Cyperus microiria. The herbicidal activity of the following comparative compounds A and B (the compounds disclosed Japanese Unexamined Patent Publication No. 2003-096059) were evaluated in a manner pursuant to Test Example 1. (#2).

[2] = tested on: Echinochloa crus-galli (L.) P. Beauv. var. formosensis Ohwi; assay: Test for Herbicidal Effect in Flooding Treatment (#1), ECHDG; details: for ECHDG #1 herbicidal effect (growth inhibition grade): flooding treatment at seeding, dose 2 kg/ha, visual observation on day 21; for ECHDG #1 herbicidal effect (growth inhibition rating 0-5): flooding treatment #1
Protocol: (§1) (#1) Test for Herbicidal Effect in Flooding Treatment: Styrol cups each having an opening diameter of 8 cm (about 52 cm^2) were respectively filled with soil (45 ml) which had been passed through a sieve (2 mm). Water (about 115 ml) was mixed with the soil such that the soil was flooded. After the soil stood still for 24 hours, Monochoria vaginalis, Echinochloa crus-galli (L.) P. Beauv. var. formosensis Ohwi, Cyperus difformis (umbrella sedge), and Scirpus juncoides were seeded. Each of the compounds of the present invention was dissolved in acetone, and the obtained product was then diluted with water containing Tween 80®. Each of the resultant chemical solutions was dropped on the entire surface of an associated one of treatment sections, so that each section was treated with 1 ml of the respective chemical solution (a dose of 2 kg/ha). After the treatment, the plants were grown in a glasshouse. On day 21, a survey was conducted on the herbicidal activity by visual observation, and evaluation was made according to the following criteria. 0: Growth inhibition effect is less than 10%. 1: Growth inhibition effect is equal to or greater than 10%, and less than 30%. 2; Growth inhibition effect is equal to or greater than 30%, and less than 50%. 3: Growth inhibition effect equal to or greater than 50%, and less than 70%. 4: Growth inhibition effect is equal to or greater than 70%, and less than 90%. 5: Growth inhibition effect is equal to or greater than 90%, or complete withering is achieved. ECHDG=Echinochloa crus-galli (L.) P. Beauv. var. formosensis Ohwi, MONVA=Monochoria vaginalis, SCIJU=Scirpus juncoides, CYMIC=Cyperus microiria.

Monochoria vaginalis = assay: Test for Herbicidal Effect in Flooding Treatment (#1), MONVA; details: for MONVA #1 herbicidal effect (growth inhibition grade): flooding treatment at seeding, dose 2 kg/ha, visual observation on day 21; for MONVA #1 herbicidal effect (growth inhibition rating 0-5): flooding treatment #1
Protocol: as §1

Scirpus juncoides = assay: Test for Herbicidal Effect in Flooding Treatment (#1), SCIJU; details: for SCIJU #1 herbicidal effect (growth inhibition grade): flooding treatment at seeding, dose 2 kg/ha, visual observation on day 21; for SCIJU #1 herbicidal effect (growth inhibition rating 0-5): flooding treatment #1
Protocol: as §1

SMILES: O=S(=O)(Cc1c(OCC(F)(F)F)cccc1C(F)(F)F)c1ncc(Br)s1 [Compound 1C-162]
- ECHDG (2-2.5L) #2 herbicidal effect (growth inhibition grade) [1]: 5 (Growth inhibition effect is equal to or greater than 90%, or complete withering is achieved)
- ECHDG #1 herbicidal effect (growth inhibition grade) [2]: 5 (Growth inhibition effect is equal to or greater than 90%, or complete withering is achieved)
- MONVA #1 herbicidal effect (growth inhibition grade) (Monochoria vaginalis): 5 (Growth inhibition effect is equal to or greater than 90%, or complete withering is achieved)
- SCIJU #1 herbicidal effect (growth inhibition grade) (Scirpus juncoides): 5 (Growth inhibition effect is equal to or greater than 90%, or complete withering is achieved)

SMILES: COc1cccc(C(F)(F)F)c1CS(=O)(=O)c1ncc(Cl)s1 [Compound 1C-7]
- ECHDG (2-2.5L) #2 herbicidal effect (growth inhibition grade) [1]: 5 (Growth inhibition effect is equal to or greater than 90%, or complete withering is achieved)
- ECHDG #1 herbicidal effect (growth inhibition grade) [2]: 5 (Growth inhibition effect is equal to or greater than 90%, or complete withering is achieved)
- MONVA #1 herbicidal effect (growth inhibition grade) (Monochoria vaginalis): 5 (Growth inhibition effect is equal to or greater than 90%, or complete withering is achieved)
- SCIJU #1 herbicidal effect (growth inhibition grade) (Scirpus juncoides): 5 (Growth inhibition effect is equal to or greater than 90%, or complete withering is achieved)

SMILES: O=S(=O)(Cc1c(OCC(F)F)cccc1OCC(F)F)c1ncc(Cl)s1 [Compound 1C-129]
- ECHDG #1 herbicidal effect (growth inhibition grade) [2]: 5 (Growth inhibition effect is equal to or greater than 90%, or complete withering is achieved)
- MONVA #1 herbicidal effect (growth inhibition grade) (Monochoria vaginalis): 5 (Growth inhibition effect is equal to or greater than 90%, or complete withering is achieved)
- SCIJU #1 herbicidal effect (growth inhibition grade) (Scirpus juncoides): 4 (Growth inhibition effect is equal to or greater than 70%, and less than 90%)

SMILES: [O-][S+](Cc1c(F)cccc1OCC(F)(F)C(F)F)c1ncc(Cl)s1 (stereo not shown) [Compound 1B-12]
- ECHDG (2-2.5L) #2 herbicidal effect (growth inhibition rating 0-5) ([1]; flooding treatment #2, 2-2.5 leaf stage): 5 (Growth inhibition effect is equal to or greater than 90%, or complete withering is achieved)
- ECHDG #1 herbicidal effect (growth inhibition rating 0-5) [2]: 5 (Growth inhibition effect is equal to or greater than 90%, or complete withering is achieved)
- MONVA #1 herbicidal effect (growth inhibition rating 0-5) (Monochoria vaginalis): 5 (Growth inhibition effect is equal to or greater than 90%, or complete withering is achieved)
- SCIJU #1 herbicidal effect (growth inhibition rating 0-5) (Scirpus juncoides): 5 (Growth inhibition effect is equal to or greater than 90%, or complete withering is achieved)

SMILES: O=S(=O)(Cc1c(Cl)cccc1OCC(F)(F)C(F)(F)F)c1ncc(Cl)s1 [Compound 1C-62]
- ECHDG (2-2.5L) #2 herbicidal effect (growth inhibition grade) [1]: 4 (Growth inhibition effect is equal to or greater than 70%, and less than 90%)
- ECHDG #1 herbicidal effect (growth inhibition grade) [2]: 5 (Growth inhibition effect is equal to or greater than 90%, or complete withering is achieved)
- MONVA #1 herbicidal effect (growth inhibition grade) (Monochoria vaginalis): 5 (Growth inhibition effect is equal to or greater than 90%, or complete withering is achieved)
- SCIJU #1 herbicidal effect (growth inhibition grade) (Scirpus juncoides): 5 (Growth inhibition effect is equal to or greater than 90%, or complete withering is achieved)

SMILES: CCOC(=O)C(F)(F)Oc1cccc(Cl)c1CS(=O)(=O)c1ncc(Cl)s1 [Compound 1C-64]
- ECHDG #1 herbicidal effect (growth inhibition grade) [2]: 5 (Growth inhibition effect is equal to or greater than 90%, or complete withering is achieved)
- MONVA #1 herbicidal effect (growth inhibition grade) (Monochoria vaginalis): 5 (Growth inhibition effect is equal to or greater than 90%, or complete withering is achieved)
- SCIJU #1 herbicidal effect (growth inhibition grade) (Scirpus juncoides): 5 (Growth inhibition effect is equal to or greater than 90%, or complete withering is achieved)

SMILES: CC(c1c(Cl)cccc1OCCC(F)(F)F)S(=O)(=O)c1ncc(Cl)s1 (racemic) [Compound 1C-150]
- ECHDG #1 herbicidal effect (growth inhibition grade) [2]: 5 (Growth inhibition effect is equal to or greater than 90%, or complete withering is achieved)
- MONVA #1 herbicidal effect (growth inhibition grade) (Monochoria vaginalis): 5 (Growth inhibition effect is equal to or greater than 90%, or complete withering is achieved)
- SCIJU #1 herbicidal effect (growth inhibition grade) (Scirpus juncoides): 5 (Growth inhibition effect is equal to or greater than 90%, or complete withering is achieved)

SMILES: CCOc1ccc(Cl)cc1C(F)(F)S(=O)(=O)c1nc(F)c(Cl)s1 [Compound 1C-139]
- ECHDG (2-2.5L) #2 herbicidal effect (growth inhibition grade) [1]: 1 (Growth inhibition effect is equal to or greater than 10%, and less than 30%)
- MONVA #1 herbicidal effect (growth inhibition grade) (Monochoria vaginalis): 5 (Growth inhibition effect is equal to or greater than 90%, or complete withering is achieved)
- SCIJU #1 herbicidal effect (growth inhibition grade) (Scirpus juncoides): 5 (Growth inhibition effect is equal to or greater than 90%, or complete withering is achieved)

SMILES: [O-][S+](Cc1c(F)cccc1OCC(F)F)c1ncc(Cl)s1 (stereo not shown) [Compound 1B-7]
- ECHDG #1 herbicidal effect (growth inhibition rating 0-5) [2]: 5 (Growth inhibition effect is equal to or greater than 90%, or complete withering is achieved)
- MONVA #1 herbicidal effect (growth inhibition rating 0-5) (Monochoria vaginalis): 5 (Growth inhibition effect is equal to or greater than 90%, or complete withering is achieved)
- SCIJU #1 herbicidal effect (growth inhibition rating 0-5) (Scirpus juncoides): 5 (Growth inhibition effect is equal to or greater than 90%, or complete withering is achieved)

SMILES: COc1ccc(Cl)c(CS(=O)(=O)c2ncc(C(F)(F)F)s2)c1F [Compound 1C-167]
- ECHDG #1 herbicidal effect (growth inhibition grade) [2]: 5 (Growth inhibition effect is equal to or greater than 90%, or complete withering is achieved)
- MONVA #1 herbicidal effect (growth inhibition grade) (Monochoria vaginalis): 5 (Growth inhibition effect is equal to or greater than 90%, or complete withering is achieved)
- SCIJU #1 herbicidal effect (growth inhibition grade) (Scirpus juncoides): 5 (Growth inhibition effect is equal to or greater than 90%, or complete withering is achieved)

SMILES: [O-][S+](Cc1c(Cl)cccc1OCC(F)(F)C(F)(F)F)c1ncc(Cl)s1 (stereo not shown) [Compound 1B-14]
- ECHDG #1 herbicidal effect (growth inhibition rating 0-5) [2]: 5 (Growth inhibition effect is equal to or greater than 90%, or complete withering is achieved)
- MONVA #1 herbicidal effect (growth inhibition rating 0-5) (Monochoria vaginalis): 5 (Growth inhibition effect is equal to or greater than 90%, or complete withering is achieved)
- SCIJU #1 herbicidal effect (growth inhibition rating 0-5) (Scirpus juncoides): 5 (Growth inhibition effect is equal to or greater than 90%, or complete withering is achieved)

SMILES: [O-][S+](Cc1c(OCC(F)F)cccc1OCC(F)F)c1ncc(Cl)s1 (stereo not shown) [Compound 1B-15]
- ECHDG #1 herbicidal effect (growth inhibition rating 0-5) [2]: 3 (Growth inhibition effect equal to or greater than 50%, and less than 70%)
- MONVA #1 herbicidal effect (growth inhibition rating 0-5) (Monochoria vaginalis): 5 (Growth inhibition effect is equal to or greater than 90%, or complete withering is achieved)
- SCIJU #1 herbicidal effect (growth inhibition rating 0-5) (Scirpus juncoides): 5 (Growth inhibition effect is equal to or greater than 90%, or complete withering is achieved)

SMILES: C#CCN(C)c1cccc(F)c1CS(=O)(=O)c1ncc(Cl)s1 [Compound 1C-169]
- ECHDG #1 herbicidal effect (growth inhibition grade) [2]: 5 (Growth inhibition effect is equal to or greater than 90%, or complete withering is achieved)
- MONVA #1 herbicidal effect (growth inhibition grade) (Monochoria vaginalis): 5 (Growth inhibition effect is equal to or greater than 90%, or complete withering is achieved)
- SCIJU #1 herbicidal effect (growth inhibition grade) (Scirpus juncoides): 5 (Growth inhibition effect is equal to or greater than 90%, or complete withering is achieved)

SMILES: CS(=O)(=O)c1ccc(CS(=O)(=O)c2ncc(Cl)s2)cc1 [Compound 1C-168]
- ECHDG #1 herbicidal effect (growth inhibition grade) [2]: 5 (Growth inhibition effect is equal to or greater than 90%, or complete withering is achieved)
- MONVA #1 herbicidal effect (growth inhibition grade) (Monochoria vaginalis): 5 (Growth inhibition effect is equal to or greater than 90%, or complete withering is achieved)
- SCIJU #1 herbicidal effect (growth inhibition grade) (Scirpus juncoides): 5 (Growth inhibition effect is equal to or greater than 90%, or complete withering is achieved)
